Data taken from patent US8518942B2, “Caspase inhibitors and uses thereof” (Buck Institute for Research on Aging, priority 2008, dated 2013).

Columns and labels:
[1] = biological target: T1, caspase-6 (Homo sapiens, UniProt P55212); experiment: Irreversible inhibitor kinetic assay (progress curve), caspase-6, substrate Ac-DEVD-AMC; assay type: biochemical; conditions: casp-6; duplicate, SD included
T1 construct: gift: Guy Salvesen's laboratory, Burnham Institute (La Jolla, Calif.)
T1 sequence (P55212 24-179 limits assumed): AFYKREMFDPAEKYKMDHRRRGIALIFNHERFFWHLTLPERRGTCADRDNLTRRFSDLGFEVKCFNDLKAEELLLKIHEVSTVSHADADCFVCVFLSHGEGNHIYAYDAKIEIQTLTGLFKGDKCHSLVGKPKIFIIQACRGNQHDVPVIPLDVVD
T1 sequence (P55212 194-293 limits assumed): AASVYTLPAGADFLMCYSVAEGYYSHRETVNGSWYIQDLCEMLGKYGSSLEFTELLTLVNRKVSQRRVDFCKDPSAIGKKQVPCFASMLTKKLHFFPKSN
Source text: (§1) Caspases-3, -6, -7, -8, and -9 were provided by Guy Salvesen's laboratory at the Burnham Institute (La Jolla, Calif.). Caspase-1 was purchased from EMD Biosciences (San Diego, Calif.) and Caspase-2 was purchased from Biomol International (Plymouth Meeting, Pa.). Caspase substrates Ac-DEVD-AMC, Ac-VDVAD-AFC, and Ac-LEHD-AFC were purchased from EMD Biosciences (San Diego, Calif.) and Ac-VDVAD-AMC was purchased from Biomol International (Plymouth Meeting, Pa.). The proteolytic cleavage of N-acyl aminocoumarins by caspases was conducted in Dynatech Microfluor fluorescence 96-well microtiter plates, and readings were taken on a Molecular Devices Spectra Max Gemini XS instrument. The excitation wavelength was 370 nm and the emission wavelength was 455 nm for AMCA substrates, the excitation wavelength was 355 nm and the emission wavelength was 450 nm for peptidyl AMC substrates, and the excitation wavelength was 430 nm and the emission wavelength was 535 nm for peptidyl AFC substrates.
(§2) The kinact/Ki for inhibitors were determined under pseudo-first order conditions using the progress curve method (Eckici et al. (2006) J. Med. Chem., 49: 5728-5749; Bieth (1995) Meth. Enzymol., 248: 59-84). Assay wells contained a mixture of inhibitor and AMC or AFC substrate in buffer. Aliquots of caspase were added to each well to initiate the assay. Hydrolysis of the AMC or AFC substrate was monitored fluorometrically for 45 min. To determine the inhibition parameters, time points for which the control ([I]=0) was linear were used. For each inhibitor, a kobs was calculated for at least four different concentrations of inhibitors via a nonlinear regression of the data according to the equation P=(vi/kobs)[1−exp(−kobst) (where product formation=P, […], and the first-order rate constant=kobs). If kobs varied linearly with [I], then the association constant kass was determined by linear regression analysis using kobs=(kass[I])/(1+[S]/Km) where [S] is the concentration of the substrate. […] Inhibition was measured in duplicate and the average of is reported. […]

[2] = biological target: T2, caspase-7 (Homo sapiens, UniProt P55210); experiment: Irreversible inhibitor kinetic assay (progress curve), caspase-7, substrate Ac-DEVD-AMC; assay type: biochemical; conditions: casp-7; duplicate, SD included
T2 construct: gift: Guy Salvesen's laboratory, Burnham Institute (La Jolla, Calif.)
T2 sequence (P55210 24-198 limits assumed): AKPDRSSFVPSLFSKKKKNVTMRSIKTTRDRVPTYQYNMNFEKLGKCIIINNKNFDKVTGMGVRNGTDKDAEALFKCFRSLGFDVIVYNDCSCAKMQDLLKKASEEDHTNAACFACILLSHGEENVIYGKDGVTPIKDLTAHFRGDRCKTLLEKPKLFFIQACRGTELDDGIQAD
T2 sequence (P55210 207-303 limits assumed): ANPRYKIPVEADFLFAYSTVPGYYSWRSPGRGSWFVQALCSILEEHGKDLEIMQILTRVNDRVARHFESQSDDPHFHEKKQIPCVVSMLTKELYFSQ
Source text: as §1, §2

`C[C@@](NS(=O)(=O)Cc1ccccc1)(c1cn([C@@H](CC(=O)O)C(=O)COc2c(F)c(F)cc(F)c2F)nn1)C1CCCCC1` [MJL-001i] was tested, and the kinact/Ki [1] was 23,100 ± 1,900 s^−1/M^−1 and the kinact/Ki [2] was 27,700 ± 2,000 s^−1/M^−1.
With `C[C@@](NC(=O)CCCC(=O)O)(c1cn([C@@H](CC(=O)O)C(=O)COc2c(F)c(F)cc(F)c2F)nn1)C1CCCCC1` [MJL-002i] the kinact/Ki [1] was 32,950 ± 1,650 s^−1/M^−1 and the kinact/Ki [2] was 57,250 ± 1,550 s^−1/M^−1.
In the case of `C[C@@](NC(=O)Cc1ccccc1)(c1cn([C@@H](CC(=O)O)C(=O)COc2c(F)c(F)cc(F)c2F)nn1)C1CCCCC1` [MJL-003i], the kinact/Ki [1] is reported as 45,750 ± 450 s^−1/M^−1 and the kinact/Ki [2] is reported as 34,200 ± 3,800 s^−1/M^−1.
